From the supplement of paper PMC11451515

Tested on: P12-Ichikawa
Test: cell viability relative to DMSO control; higher = less cytotoxic
Conditions: 48 h
Outline: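 Library compounds in DMSO were pin-dosed in an 11-point threefold series (47 μM to 0.79 nM) onto leukemia cells in 1536-well plates (5 μl). Plates held 500 cells/well of NOMO1 or SEM or 1000 cells/well of P12-Ichikawa, each adapted for at least four passages in each medium. Luminescence was read with CellTiter-Glo One after 48 h at 37°C. Viability means the per-plate percentage relative to DMSO wells, using cell-free wells as background.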

[1] = HPLM + 10% dialyzed FBS, 0.000781 µM
[2] = HPLM + 10% dialyzed FBS, 0.00234 µM
[3] = HPLM + 10% dialyzed FBS, 0.00702 µM
[4] = HPLM + 10% dialyzed FBS, 0.0211 µM
[5] = HPLM + 10% dialyzed FBS, 0.0632 µM
[6] = HPLM + 10% dialyzed FBS, 0.19 µM
[7] = HPLM + 10% dialyzed FBS, 0.569 µM
[8] = HPLM + 10% dialyzed FBS, 1.71 µM
[9] = HPLM + 10% dialyzed FBS, 5.12 µM
[10] = HPLM + 10% dialyzed FBS, 15.4 µM
[11] = HPLM + 10% dialyzed FBS, 46.1 µM
[12] = RPMI 5 mM glucose + 10% FBS, 0.000781 µM
[13] = RPMI 5 mM glucose + 10% FBS, 0.00234 µM
[14] = RPMI 5 mM glucose + 10% FBS, 0.00702 µM
[15] = RPMI 5 mM glucose + 10% FBS, 0.0211 µM
[16] = RPMI 5 mM glucose + 10% FBS, 0.0632 µM
[17] = RPMI 5 mM glucose + 10% FBS, 0.19 µM
[18] = RPMI 5 mM glucose + 10% FBS, 0.569 µM
[19] = RPMI 5 mM glucose + 10% FBS, 1.71 µM
[20] = RPMI 5 mM glucose + 10% FBS, 5.12 µM
[21] = RPMI 5 mM glucose + 10% FBS, 15.4 µM
[22] = RPMI 5 mM glucose + 10% FBS, 46.1 µM
[23] = RPMI 5 mM glucose + 10% dialyzed FBS, 0.000781 µM
[24] = RPMI 5 mM glucose + 10% dialyzed FBS, 0.00234 µM
[25] = RPMI 5 mM glucose + 10% dialyzed FBS, 0.00702 µM
[26] = RPMI 5 mM glucose + 10% dialyzed FBS, 0.0211 µM
[27] = RPMI 5 mM glucose + 10% dialyzed FBS, 0.0632 µM
[28] = RPMI 5 mM glucose + 10% dialyzed FBS, 0.19 µM
[29] = RPMI 5 mM glucose + 10% dialyzed FBS, 0.569 µM
[30] = RPMI 5 mM glucose + 10% dialyzed FBS, 1.71 µM
[31] = RPMI 5 mM glucose + 10% dialyzed FBS, 5.12 µM
[32] = RPMI 5 mM glucose + 10% dialyzed FBS, 15.4 µM
[33] = RPMI 5 mM glucose + 10% dialyzed FBS, 46.1 µM

Compound	cell viability [1] [%]	cell viability [2] [%]	cell viability [3] [%]	cell viability [4] [%]	cell viability [5] [%]	cell viability [6] [%]	cell viability [7] [%]	cell viability [8] [%]	cell viability [9] [%]	cell viability [10] [%]	cell viability [11] [%]	cell viability [12] [%]	cell viability [13] [%]	cell viability [14] [%]	cell viability [15] [%]	cell viability [16] [%]	cell viability [17] [%]	cell viability [18] [%]	cell viability [19] [%]	cell viability [20] [%]	cell viability [21] [%]	cell viability [22] [%]	cell viability [23] [%]	cell viability [24] [%]	cell viability [25] [%]	cell viability [26] [%]	cell viability [27] [%]	cell viability [28] [%]	cell viability [29] [%]	cell viability [30] [%]	cell viability [31] [%]	cell viability [32] [%]	cell viability [33] [%]
CC(C)NCC(O)COc1ccc(COCCOC(C)C)cc1 (configuration not stated)	115	117	105	103	113	118	112	96.5	92.6	107	99.5	113	121	120	120	131	124	115	110	110	116	115	113	106	107	111	114	104	105	104	104	104	104
CN\1C(=O)/C(=C(\N=C1N2CCCC[S+]2([O-])=O)C(=O)NCC3=CC=C(F)C=C3)O	124	123	115	113	118	122	119	111	107	109	103												124	116	119	126	127	117	123	120	99.7	109	102
COc1cc2c(cc1OC)C1CC(=O)C(CC(C)C)CN1CC2 (configuration not stated)	122	122	116	118	113	127	117	122	116	114	106												117	119	121	124	122	125	118	125	109	115	102
COc1cc2c(cc1-c1c(C)noc1C)ncc1[nH]c(=O)n([C@H](C)c3ccccn3)c12	107	109	111	111	115	105	103	86.2	44.2	48.9	12.2	107	110	101	111	115	99.2	110	92.1	48.3	48.5	23.1	112	106	109	104	105	105	101	90.2	52.4	48.6	22.4
ClC1=C(N\C2=N\CCN2)C3=NSN=C3C=C1	106	117	122	130	119	117	119	115	120	127	124												107	115	114	127	124	116	129	115	124	120	127
C[C@]12CC[C@@H]3c4ccc(OC(=O)N(CCCl)CCCl)cc4CC[C@H]3[C@@H]1CC[C@@H]2OP(=O)([O-])[O-].[Na+].[Na+]	118	115	113	94.4	121	117	105	111	113	110	26.6	115	118	117	89	5.78	123	118	117	106	98.7	119	107	116	117	82.8	117	105	106	111	96	104	88.1
CC(C)(C)C(=O)Oc1ccc2c(c1)nc(NC(=O)c1cccc([N+](=O)[O-])c1)n2CCCO	120	123	118	119	115	119	116	106	109	111	106												118	122	121	117	118	112	115	103	111	97.4	89.4
CCC[C@H](NC(=O)/C(C#N)=C/c1cccc(Br)n1)c1ccccc1	122	121	121	102	124	121	113	113	112	103	6.91	130	122	122	111	120	116	128	122	111	103	5.26	116	131	125	114	114	121	121	121	107	94.4	5.69
C[C@]12C[C@H](O)[C@H]3[C@@H](CC\C4=C\C(=O)\C=C/[C@]34C)[C@@H]1CC[C@]2(O)C(=O)CO																							128	118	119	121	117	107	88.2	69.7	57.9	52	14
CN(c1ncccc1CNc1nc(Nc2ccc3c(c2)CC(=O)N3)ncc1C(F)(F)F)[S+](C)(=O)[O-]	111	117	109	109	112	112	103	109	112	101	57.8	111	113	116	110	121	113	114	114	100	88.9	50.1	115	118	117	114	117	108	114	114	110	105	48.2
C[C@H](NC(=O)/C(C#N)=C/c1cccc(Br)n1)c1ccccc1	107	113	112	121	119	122	120	45.1	7.82	7.53	7.45	112	119	112	111	118	125	131	88.3	9.63	6.78	6.3	111	109	113	111	109	126	121	79.2	9.86	7.21	6.61
CC1=CC=CC=C1N2\C(=N/C3=C(C(=CC=C3)C)C2=O)C[N]4C=NC5=C4N=CN=C5N	115	124	122	85	120	118	108	106	79.5	78.2	82.2	113	116	107	79.6	109	98.1	97.6	81.2	62.8	60.5	57.9	107	123	116	81.7	128	112	108	95.6	70.2	56	63.9
CN1[C@@H]2CC[C@H]1CC(OC(=O)c1c[nH]c3ccccc13)C2 (some centres not stated)	125	127	119	96.1	110	117	116	126	111	114	111												120	115	121	107	116	116	120	117	118	113	107
CC(C)c1cnn2c(NCc3ccccc3)cc(N[C@@H](CO)[C@H](O)CO)nc12	121	128	124	127	129	127	120	35.4	8.12	5.35	4.01																						
CCN(CC)CC#CCOC(=O)C(O)(c1ccccc1)C1CCCCC1 (configuration not stated)	105	118	113	78.3	119	110	120	117	118	118	106												118	119	120	85.5	137	135	125	123	122	117	111
COc1ccc(Cc2ccc(NC(N)=O)cc2)cc1-c1cccc(Cl)c1	112	115	127	121	118	118	123	124	126	122	116	114	134	122	131	130	127	117	130	149	132	124	110	120	113	111	117	119	115	131	121	124	113
C[C@H](O)[C@H]1[C@@H]2[C@H](C)C(=C(\N2C1=O)C(O)=O)/S[C@@H]3CN[C@H](CN[S+](N)([O-])=O)C3	118	125	132	129	124	125	124	121	121	113	104	123	126	123	128	124	122	123	111	117	103	105											
CC(N[C@H]1C[C@@H]1c1ccccc1)c1ccc2c(c1)OCCO2 (some centres not stated)	119	117	121	128	119	118	116	113	107	112	104																						
CC1=NN(c2ccc(C)c(C)c2)C(=O)/C1=N/Nc1cccc(-c2cccc(C(=O)O)c2)c1O	120	120	129	124	116	127	121	118	112	91.1	68.1																						
